This is an account of results in patent publication US20060234919A1, “Use” (priority 2001, published 2006).

In test [1] the test system is carrageenan induced edema. The test is described as follows: carrageenan induced edema of the rat hindpaw (plethysmometer). It is filed as in vivo. The conditions noted are these: for carrageenan induced edema, percentage increase in hindpaw volume: 10 mg/kg i.m. The method, then: Male Sprague-Dawley rats (260-300 g for s.c. injected and 340-380 g for i.c.v. injected) were used (B&K Universal A B, Sollentuna, Sweden). The animals arrived at least one week before experiments and were housed three-four per cage (except animals provided with i.c.v. cannulas that were housed individually) with free access to food (R36, Ewos, Södertälje, Sweden) and water. The light schedule was a 12/12 h light/dark cycle, and ambient temperature was 20±2° C.
Oxytocin and the oxytocin antagonist (1-deamino-2-D-Tyr-(OEt)-4-Thr-8-Orn-oxytocin) (Ferring, Malmö, Sweden) were dissolved in physiological saline and injected in a volume of 1 ml/kg s.c. in the dorsal neck. Dexamethasone (Decadron®, Merck, Sharp & Dome, USA) was administered intramuscularly (i.m.). Oxytocin given i.c.v. was dissolved in a volume of 5 μl physiological saline and slowly injected over a period of 1 minute through the i.c.v. guide cannula via a 25 G stain-less-steel injection needle connected to a 10 μl Hamilton syringe via a polyethylene tube. Controls received saline in the same amounts.
The model of inflammation used, the carrageenan induced edema, is a commonly used model for studies of inflammation and for testing novel anti-inflammatory drugs (Winter C A, Risley E A, Nuss G W. Carrageenan-induced edema in hind paw of the rat as an assay for anti-inflammatory drugs. Proc Soc Exp Biol Med 1962; 111:544-7). To produce acute inflammation, carrageenan, 2 mg in 0.1 ml saline, was injected s.c. into the plantar region of the rat right hindpaw.
The rats were treated s.c. with oxytocin (1.0, 10, 100 or 1000 μg/kg (n=8 in each group) or saline (n=8+8) immediately before the carrageenan injection. The edema of the right hindpaw was measured (volume in ml) using a plethysmometer (Ugo Basile, type 7150, Florence, Italy) before treatment, half an hour after, one hour after, and then every hour up to 6 or 10 hours after treatment.
The results are presented as means±SD. Statistical analysis was performed by means of a 1-way ANOVA, followed by Fisher's test for post-hoc comparisons. In the analysis of myeloperoxidase accumulation, a Student's t-test was used. P-values of 0.05 or less were regarded as statistically significant.
The rats were treated s.c. with oxytocin (1000 μg/kg) and the oxytocin antagonist (1000 μg/kg) (the antagonist was given 30 minutes before oxytocin) (n=8), the oxytocin antagonist alone (1000 μg/kg) (n=8) or saline (n=8) immediately before the carrageenan injection. Measurements as in Example 1.
The rats were treated i.c.v. with oxytocin (1.0 μg/kg) (n=6) or saline (n=7) immediately before the carrageenan injection. Measurements as in Example 1. The animals were anaesthetised with sodiumpentobarbital (50 mg/kg) (Apoteksbolaget, Sweden) injected intraperitoneally (i.p.). The scull was uncovered, a hole was drilled in the right parietal bone and a guide cannula (21 G) was fixed stereotactically to the scull by means of acrylic dental cement. The coordinates were 1.00 mm posterior and 1.30 mm lateral to the bregma. […] The injection needles (25 G) reached 3.80 mm below the dura mater, with the tip of the needle in the right lateral ventricle. The animals were allowed one week of recovery after the operation. At the end of the experiment, the placement of the guide cannula was checked by injection of 2 μl of toluidine blue.
The rats were treated i.m. with dexamethasone (10 mg/kg) (n=6) or saline (n=6) immediately before the carrageenan injection. The edema of the right hindpaw was measured using the plethysmometer before treatment, and at 2, 4 and 6 hours after treatment.
On the technique in general: In the carrageenan paw model, swelling and tenderness develop within hours.

Test [2] has as its system ischaemic musculocutaneous skin flaps. The conditions noted are these: antagonist 1 mg/kg s.c.; previously shown by the inventors; cited from earlier work.

Regarding `C[C@@H]1C[C@H]2[C@@H]3CCC4=CC(=O)C=C[C@]4(C)[C@@]3(F)[C@@H](O)C[C@]2(C)[C@@]1(O)C(=O)CO` [Dexamethasone], the “carrageenan induced edema, percentage increase in hindpaw volume” value in test [1] (2 hours, saline 48±10%, p<0.05) was 35±9.3%; in test [1] (4 hours, saline 78±12%, p<0.05), 54±14%; in test [1] (6 hours, saline 105±11%, p<0.01), 71±15%.

With “1-deamino-2-D-Tyr-(OEt)-4-Thr-8-Orn-oxytocin [oxytocin antagonist]”, in test [1] (antagonist 1000 μg/kg s.c. 30 minutes before oxytocin), the “abolition of the oxytocin (1000 μg/kg s.c.) induced effect on carrageenan induced edema” value is reported as “did not abolish”. Besides, the “effect on carrageenan induced edema” value in test [1] (antagonist 1000 μg/kg s.c. administered alone) is listed as “did not induce any effect”. Besides, the “antagonism of the oxytocin (1 mg/kg s.c.) effect on skin flap survival” value in test [2] is “abolished”.
